According to PubChem BioAssay AID328 (DTP/NCI, 2004):
Where “and” joins values, the source holds several entries; their conditions need not be identical. Equal entries are not always repeated. Inconclusive results and toxic doses are left out.

Test system: BDF1 mice, P388 leukemia ip, median survival T/C
Test: NCI In Vivo Anticancer Drug Screen. Data for tumor model P388 Leukemia (intraperitoneal) in B6D2F1 (BDF1) mice
Conditions: endpoint: median survival time, higher = longer survival
Method in brief: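 Steps: implant the tumour, treat one group with compound and another with vehicle, record survival, then divide treated by control.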

[1] = dose: 12.5 mg/kg/injection, schedule: Q01DX009 (ip), vehicle: saline with Tween-80
[2] = dose: 25.0 mg/kg/injection, schedule: Q01DX009 (ip), vehicle: saline with Tween-80
[3] = dose: 50.0 mg/kg/injection, schedule: Q01DX009 (ip), vehicle: saline with Tween-80
[4] = dose: 25.0 mg/kg/injection, schedule: Q01DX009 (ip), vehicle: saline
[5] = dose: 100.0 mg/kg/injection, schedule: Q04DX003 (ip), vehicle: saline
[6] = dose: 5.0 mg/kg/injection, schedule: Q01DX010 (ip), vehicle: saline
[7] = dose: 12.5 mg/kg/injection, schedule: Q01DX009 (ip), vehicle: Klucel (hydroxypropylcellulose) (HPC)
[8] = dose: 100.0 mg/kg/injection, schedule: Q01DX009 (ip), vehicle: saline
[9] = dose: 200.0 mg/kg/injection, schedule: Q01DX009 (ip), vehicle: saline
[10] = dose: 200.0 mg/kg/injection, schedule: Q04DX003 (ip), vehicle: saline
[11] = dose: 200.0 mg/kg/injection, schedule: Q01DX001 (ip), vehicle: saline
[12] = dose: 1.56 mg/kg/injection, schedule: Q01DX009 (ip), vehicle: saline

## Cn1c2nc(=O)n(-c3ccccc3)c(=O)c-2nc2ccccc21
[1]
  T/C: 95 % of control
[2]
  T/C: 104 % of control
[3]
  T/C: 91 % of control and 95 % of control

## CCCCCCCCN(N)C12CC3CC(CC(C3)C1)C2
dose: 12.5 mg/kg/injection, schedule: Q01DX009 (ip), vehicle: saline
  T/C: 116 % of control
dose: 12.5 mg/kg/injection, schedule: Q04DX003 (ip), vehicle: saline
  T/C: 90 % of control
[4]
  T/C: 119 % of control
dose: 25.0 mg/kg/injection, schedule: Q04DX003 (ip), vehicle: saline
  T/C: 100 % of control
dose: 50.0 mg/kg/injection, schedule: Q04DX003 (ip), vehicle: saline
  T/C: 94 % of control
[5]
  T/C: 100 % of control

## c1c(NC2=NCCO2)cc2c3c1CCCN3CCC2
[1]
  T/C: 104 % of control
[2]
  T/C: 118 % of control
[3]
  T/C: 113 % of control

## COc1ccc2c(c[n+](C)c3c4cc5c(cc4ccc23)OCO5)c1OC
[6]
  T/C: 90 % of control
dose: 10.0 mg/kg/injection, schedule: Q01DX010 (ip), vehicle: saline
  T/C: 100 % of control

## Clc1c(CBr)c(Cl)c(CBr)c(Cl)c1CBr
[7]
  T/C: 113 % of control
dose: 25.0 mg/kg/injection, schedule: Q01DX009 (ip), vehicle: Klucel (hydroxypropylcellulose) (HPC)
  T/C: 122 % of control

## O=S(=O)(Nc1ccc(NS(=O)(=O)c2ccccc2)cc1)c1ccccc1
dose: 3.12 mg/kg/injection, schedule: Q01DX009 (ip), vehicle: Klucel (hydroxypropylcellulose) (HPC)
  T/C: 100 % of control
dose: 6.25 mg/kg/injection, schedule: Q01DX009 (ip), vehicle: Klucel (hydroxypropylcellulose) (HPC)
  T/C: 100 % of control
[7]
  T/C: 95 % of control
dose: 100.0 mg/kg/injection, schedule: Q01DX009 (ip), vehicle: Klucel (hydroxypropylcellulose) (HPC)
  T/C: 96 % of control

## O=C(OCCO)c1ccccc1O
[8]
  T/C: 107 % of control
[9]
  T/C: 115 % of control
dose: 400.0 mg/kg/injection, schedule: Q01DX009 (ip), vehicle: saline
  T/C: 100 % of control

## c1ccc2c(c1)[nH]c1nc3ncncc3nc12
[5]
  T/C: 122 % of control
[10]
  T/C: 100 % of control
dose: 400.0 mg/kg/injection, schedule: Q04DX003 (ip), vehicle: saline
  T/C: 100 % of control

## Nc1ccn(C2OC(CO)C(O)C2O)c(=O)n1 (centres undefined)
[6]
  T/C: 190 % of control
dose: 13.0 mg/kg/injection, schedule: Q03HX024 (ip), vehicle: saline
  T/C: 300 % of control
dose: 16.0 mg/kg/injection, schedule: Q01DX005 (ip), vehicle: saline
  T/C: 170 % of control
dose: 50.0 mg/kg/injection, schedule: Q01DX005 (ip), vehicle: Klucel (hydroxypropylcellulose) (HPC)
  T/C: 150 % of control
dose: 60.0 mg/kg/injection, schedule: Q01DX010 (ip), vehicle: water
  T/C: 90 % of control and 110 % of control
dose: 80.0 mg/kg/injection, schedule: Q01DX009 (ip), vehicle: water
  T/C: 86 % of control
dose: 80.0 mg/kg/injection, schedule: Q01DX010 (ip), vehicle: water
  T/C: 90 % of control
[8]
  T/C: 100 % of control
dose: 100.0 mg/kg/injection, schedule: Q01DX009 (ip), vehicle: water
  T/C: 86 % of control and 90 % of control
dose: 100.0 mg/kg/injection, schedule: Q01DX010 (ip), vehicle: water
  T/C: 90 % of control
dose: 160.0 mg/kg/injection, schedule: Q01DX010 (ip), vehicle: saline
  T/C: 100 % of control
[11]
  T/C: 100 % of control
[9]
  T/C: 91 % of control and 110 % of control
dose: 256.0 mg/kg/injection, schedule: Q01DX005 (ip), vehicle: saline
  T/C: 96 % of control
dose: 1500.0 mg/kg/injection, schedule: Q04DX003 (ip), vehicle: water
  T/C: 200 % of control

## CC12CCC3C4CCC(=O)C(O)=C4CCC3C1CCC2OC(=O)CCC1CCCC1 (centres undefined)
dose: 100.0 mg/kg/injection, schedule: Q04DX003 (sc), vehicle: steriod suspending solution
  T/C: 86 % of control
dose: 400.0 mg/kg/injection, schedule: Q04DX003 (sc), vehicle: steriod suspending solution
  T/C: 95 % of control

## O=S(=O)(O)O.[Co+3].[Co+3].[NH2-].[NH2-].[NH2-].[NH2-].[NH2-].[NH2-].[NH2-].[NH2-].[NH2-].[NH2-].[O-][O-]
[12]
  T/C: 97 % of control
dose: 3.13 mg/kg/injection, schedule: Q01DX009 (ip), vehicle: saline
  T/C: 98 % of control
dose: 6.25 mg/kg/injection, schedule: Q01DX009 (ip), vehicle: saline
  T/C: 97 % of control

## N#Cc1cc2c3c(c1)CCCN3CCC2
dose: 40.0 mg/kg/injection, schedule: Q01DX001 (ip), vehicle: saline with Tween-80
  T/C: 100 % of control
dose: 80.0 mg/kg/injection, schedule: Q01DX001 (ip), vehicle: saline with Tween-80
  T/C: 95 % of control
dose: 160.0 mg/kg/injection, schedule: Q01DX001 (ip), vehicle: saline with Tween-80
  T/C: 109 % of control

## CN(C)Cc1cc(C(C)(C)CC(C)(C)C)ccc1O
dose: 100.0 mg/kg/injection, schedule: Q04DX002 (ip), vehicle: Klucel (hydroxypropylcellulose) (HPC)
  T/C: 114 % of control
dose: 200.0 mg/kg/injection, schedule: Q04DX002 (ip), vehicle: Klucel (hydroxypropylcellulose) (HPC)
  T/C: 99 % of control

## COc1cc2c(c3oc(=O)ccc13)C(=O)CC(C)(C)O2
dose: 50.0 mg/kg/injection, schedule: Q01DX001 (ip), vehicle: saline
  T/C: 108 % of control
dose: 100.0 mg/kg/injection, schedule: Q01DX001 (ip), vehicle: saline
  T/C: 100 % of control
[11]
  T/C: 104 % of control

## CC1(C)C(=O)N(Cl)C(=O)N1Cl
dose: 6.25 mg/kg/injection, schedule: Q01DX009 (ip), vehicle: saline with Tween-80
  T/C: 109 % of control
[1]
  T/C: 113 % of control
[2]
  T/C: 263 % of control

## Nc1ncnc2c1c(C(=O)O)cn2C1OC(CO)C(O)C1O (centres undefined)
dose: 66.0 mg/kg/injection, schedule: Q04DX003 (ip), vehicle: saline with Tween-80
  T/C: 160 % of control
dose: 100.0 mg/kg/injection, schedule: Q04DX003 (ip), vehicle: saline with Tween-80
  T/C: 150 % of control and 170 % of control

## CCN1/C(=C/C(C)=C/c2sc3ccccc3[n+]2CC)Sc2ccccc21
dose: 25.0 micrograms/kg/injection, schedule: Q01DX009 (ip), vehicle: Klucel (hydroxypropylcellulose) (HPC)
  T/C: 116 % of control
dose: 50.0 micrograms/kg/injection, schedule: Q01DX009 (ip), vehicle: Klucel (hydroxypropylcellulose) (HPC)
  T/C: 109 % of control and 120 % of control
dose: 100.0 micrograms/kg/injection, schedule: Q01DX009 (ip), vehicle: Klucel (hydroxypropylcellulose) (HPC)
  T/C: 106 % of control and 108 % of control
dose: 200.0 micrograms/kg/injection, schedule: Q01DX009 (ip), vehicle: Klucel (hydroxypropylcellulose) (HPC)
  T/C: 97 % of control
dose: 400.0 micrograms/kg/injection, schedule: Q01DX009 (ip), vehicle: Klucel (hydroxypropylcellulose) (HPC)
  T/C: 106 % of control

## COc1cc(/C=N/OCc2cc3c(cc2Cl)OCO3)cc(OC)c1OC
dose: 100.0 mg/kg/injection, schedule: Q04DX003 (ip), vehicle: saline sonified
  T/C: 95 % of control
dose: 200.0 mg/kg/injection, schedule: Q04DX003 (ip), vehicle: saline sonified
  T/C: 90 % of control
dose: 400.0 mg/kg/injection, schedule: Q04DX003 (ip), vehicle: saline sonified
  T/C: 104 % of control

## CC(=O)OCC(=O)[C@@]1(O)CC[C@H]2[C@@H]3CCC4=CC(=O)CC[C@]4(C)[C@H]3[C@@H](O)C[C@@]21C
dose: 90.0 mg/kg/injection, schedule: Q01DX010 (sc), vehicle: steriod suspending solution
  T/C: 100 % of control
dose: 100.0 mg/kg/injection, schedule: Q01DX009 (ip), vehicle: saline with Tween-80
  T/C: 100 % of control
dose: 130.0 mg/kg/injection, schedule: Q01DX010 (sc), vehicle: steriod suspending solution
  T/C: 88 % of control
dose: 200.0 mg/kg/injection, schedule: Q01DX009 (ip), vehicle: saline with Tween-80
  T/C: 110 % of control
dose: 400.0 mg/kg/injection, schedule: Q01DX009 (ip), vehicle: saline with Tween-80
  T/C: 90 % of control

## O=C1NC(c2ccccc2)C(=O)N1CCN(CCCl)CCCl (centres undefined)
[12]
  T/C: 114 % of control
dose: 3.12 mg/kg/injection, schedule: Q01DX009 (ip), vehicle: saline
  T/C: 105 % of control
[4]
  T/C: 201 % of control

## CCSc1ccc2c(c1)N(CCCN1CCN(C)CC1)c1ccccc1S2
dose: 15.0 mg/kg/injection, schedule: Q04DX003 (ip), vehicle: saline
  T/C: 110 % of control
[2]
  T/C: 112 % of control
[4]
  T/C: 92 % of control
dose: 30.0 mg/kg/injection, schedule: Q04DX003 (ip), vehicle: saline
  T/C: 120 % of control
[3]
  T/C: 91 % of control
dose: 50.0 mg/kg/injection, schedule: Q01DX009 (ip), vehicle: saline
  T/C: 103 % of control
[5]
  T/C: 90 % of control
dose: 120.0 mg/kg/injection, schedule: Q04DX003 (ip), vehicle: saline
  T/C: 105 % of control
[10]
  T/C: 150 % of control
